Patent publication US12048693B2, “Substituted halo-quinoline derivatives, method of preparation and applications thereof” (Institut National de la Sante et de la Recherche Medicale …, priority 2018, dated 2024)

Assays:
[1] = Melanocyte viability assay (MHN); format: cell-based; conditions: human, MHN melanocytes, 10 μM for 96 h, normalized to DMSO-treated control, read-out: Heathly Cell Viability MHN
Experimental: Melanocyte Viability Assay (MHN)
Cell viability effects were evaluated by trypan blue exclusion assay. Briefly, cells were seeded into 12-well plate and grown in media supplemented with indicated compound at 10 μM for 96 h. Cells were washed with PBS and detached by trypsinization, collected and colored by trypan blue. Dead and living cells were counted and cell viability was calculated as follow: Viability (%)=100−[(dead cell number/total cells)*100].

melanoma cell line A375 = assay: In vitro dose response study on A375 proliferation; format: cell-based; conditions: Homo sapiens, A-375, 96 h, graded concentration
Experimental: The melanoma cell line A375 was treated during 96 h with graded concentration of compounds 42 and 43. At the end of the culture period, the cell concentration was determined.

A375 = assay: Cancer cell viability, trypan blue exclusion assay; format: cell-based; conditions: Homo sapiens, A-375, normalized to DMSO-treated control
Experimental: (§1) The tested cancer cells are the following: human melanoma cells (A375), lung carcinoma cells (A549), prostate cancer cells (PC3), colon adenocarcinoma (HT29), pancreas carcinoma (MiaPaca 2) and breast carcinoma (MCF-7).
Cells were counted using a Malassez chamber. The average and standard deviation were calculated from triplicate experiments. Antiproliferative effects were evaluated by trypan blue exclusion assay. […] Cells were washed with PBS and detached by trypsinization, collected and colored by trypan blue.
(§2) As a comparison, cell viability was also determined and calculated as follow: Viability (%)=100−[(dead cell number/total cells)*100].

PC3 [2] = assay: Cancer cell viability, trypan blue exclusion assay; format: cell-based; conditions: Homo sapiens, PC-3, normalized to DMSO-treated control
Experimental: (§3) Cancer Cell Proliferation Assay (A375, A549, PC3, HT-29, MiaPaca-2 and MCF-7)
as §1
(§4) Cells were counted using a Malassez chamber. The average and standard deviation were calculated from triplicate experiments. Antiproliferative effects were evaluated by trypan blue exclusion assay. Briefly, cells were seeded into 12-well plate and grown in media supplemented with indicated compound at 1 or 10 μM for 48 h or 96 h. Cells were washed with PBS and detached by trypsinization, collected and colored by trypan blue.
as §2

HT29 = assay: Cancer cell viability, trypan blue exclusion assay; format: cell-based; conditions: Homo sapiens, HT-29, normalized to DMSO-treated control
Experimental: as §3, §1, §4, §2

MCF-7 = assay: Cancer cell viability, trypan blue exclusion assay; format: cell-based; conditions: Homo sapiens, MCF7, normalized to DMSO-treated control
Experimental: as §3, §1, §4, §2

MiaPaca-2 = assay: Cancer cell viability, trypan blue exclusion assay; format: cell-based; conditions: Homo sapiens, MIA PaCa-2, normalized to DMSO-treated control
Experimental: as §3, §1, §4, §2

A549 = assay: Cancer cell viability, trypan blue exclusion assay; format: cell-based; conditions: Homo sapiens, normalized to DMSO-treated control
Experimental: as §3, §1, §4, §2

PC3 [3] = assay: Cancer cell proliferation assay; format: cell-based, human; conditions: 10 μM, normalized to DMSO-treated control
Experimental: as §3, §1, §4
Dead and living cells were counted and proliferation was calculated as follow: Proliferation (%)=[(treated cell number/untreated cells number)*100].

Row | Structure (SMILES) | viability at 96 h, 10 μM [1] [%] | IC50 (melanoma cell line A375) [nM] | viability at 10 µM (A375) [%] | viability at 10 µM (PC3 [2]) [%] | viability at 10 µM (HT29) [%] | viability at 10 µM (MCF-7) [%] | viability at 10 µM (MiaPaca-2) [%] | viability at 10 µM (A549) [%] | Cancer Cell Proliferation (PC3 [3]) [%]
1 | COCCOc1ccc(Nc2ccnc3cc(Cl)ccc23)cc1 [Compound 42, 7-chloro-N-(4-(2-methoxyethoxy)phenyl)quinolin-4-amine] | 99 | 420 | 99.3 | 98.9 | 97.3 | 97.2 | 100 | 99.7 | 
2 | COc1ccc(Nc2ccnc3cc(Cl)ccc23)cc1O [Compound 43, 7-chloro-N-(3-(hydroxy)-4-(methoxy)phenyl)quinolin-4-amine] |  | 1830 |  | 94.6 | 85.8 | 99.6 | 97.6 | 99.8 | 55.0
